Data: ChEMBL document CHEMBL4837249, “Discovery of Potent Antiallergic Agents Based on an o-Aminopyridinyl Alkynyl Scaffold” (J Med Chem, 2021)
Calls of active or inactive are those of the source. The calls are words filed in the database; no cut-off is given here.

Experiments:
RBL-2H3 [1] = assay: Antiallergic activity against anti-DNP-IgE sensitized rat RBL-2H3 cells assessed as […] of degranulation by measuring beta-hexosaminidase release using P-nitrophenyl-N-acetyl-D-glucosamide as substrate at 0.04 uM measured after 1 hr by microplate reader relative to control; assay type: functional
[2] = target: Tyrosine-protein kinase SYK (Rattus norvegicus) (UniProt Q64725); assay: Inhibition of Syk phosphorylation in rat RBL-2H3 cells assessed as inhibition of Fc epsilonRI-mediated signal transduction by Western blot analysis; assay type: cell-based; conditions: dose 8-200 nM
[3] = target: 1-phosphatidylinositol 4,5-bisphosphate phosphodiesterase gamma-1 (Rattus norvegicus) (UniProt P10686); assay: Inhibition of PLCgamma1 phosphorylation in rat RBL-2H3 cells assessed as inhibition of Fc epsilonRI-mediated signal transduction by Western blot analysis; assay type: cell-based; conditions: dose 8-200 nM
RBL-2H3 [4] = assay: Inhibition of Akt phosphorylation in rat RBL-2H3 cells assessed as inhibition of Fc epsilonRI-mediated signal transduction by Western blot analysis; assay type: cell-based; conditions: dose 8-200 nM
[5] = Cmax in BALB/c mouse at 20 mg/kg, po measured up to 24 hrs by LC-MS/MS analysis; assay type: ADME, organism-based; set-up: route oral, dose 20 mg/kg, time <=24; conditions: in vivo
[6] = AUC (0 to t) in BALB/c mouse at 20 mg/kg, po measured up to 24 hrs by LC-MS/MS analysis; assay type: ADME, organism-based; set-up: route oral, dose 20 mg/kg, time <=24; conditions: in vivo
[7] = Clearance in BALB/c mouse at 2 mg/kg, iv measured up to 24 hrs by LC-MS/MS analysis; assay type: ADME, organism-based; conditions: in vivo
[8] = MRT in BALB/c mouse at 2 mg/kg, iv measured up to 24 hrs by LC-MS/MS analysis; assay type: ADME, organism-based; conditions: in vivo
Mus musculus = assay: Antiallergic activity against anti-DNP IgE sensitized house dust mite-induced BALB/c mouse pulmonary allergic inflammation model assessed as by reduction in serum total IgE level at 40 mg/kg, po measured every 5 mins for 60 mins; assay type: functional, organism-based
[9] = Toxicity in anti-DNP IgE sensitized BALB/c mouse assessed as body weight loss at 40 mg/kg, po; assay type: organism-based; conditions: in vivo
[10] = Toxicity in anti-DNP IgE sensitized BALB/c mouse assessed as diarrhea at 40 mg/kg, po; assay type: organism-based; conditions: in vivo
[11] = Toxicity in anti-DNP IgE sensitized BALB/c mouse assessed as hemorrhage at 40 mg/kg, po; assay type: organism-based; conditions: in vivo
[12] = Toxicity in anti-DNP IgE sensitized BALB/c mouse assessed as ascites at 40 mg/kg, po; assay type: organism-based; conditions: in vivo
[13] = Toxicity in anti-DNP IgE sensitized BALB/c mouse assessed as hepatopathy at 40 mg/kg, po; assay type: organism-based; conditions: in vivo
[14] = target: Tyrosine-protein kinase SYK (Homo sapiens) (UniProt P43405); assay: Inhibition of human full length recombinant Syk at 5 nM by radiometric scintillation counting analysis relative to control
[15] = target: Tyrosine-protein kinase JAK1 (Homo sapiens) (UniProt P23458); assay: Inhibition of human recombinant JAK1 at 5 nM radiometric scintillation counting analysis relative to control
Tyrosine-protein kinase JAK1 (Homo sapiens), sequence (P23458 whole entry): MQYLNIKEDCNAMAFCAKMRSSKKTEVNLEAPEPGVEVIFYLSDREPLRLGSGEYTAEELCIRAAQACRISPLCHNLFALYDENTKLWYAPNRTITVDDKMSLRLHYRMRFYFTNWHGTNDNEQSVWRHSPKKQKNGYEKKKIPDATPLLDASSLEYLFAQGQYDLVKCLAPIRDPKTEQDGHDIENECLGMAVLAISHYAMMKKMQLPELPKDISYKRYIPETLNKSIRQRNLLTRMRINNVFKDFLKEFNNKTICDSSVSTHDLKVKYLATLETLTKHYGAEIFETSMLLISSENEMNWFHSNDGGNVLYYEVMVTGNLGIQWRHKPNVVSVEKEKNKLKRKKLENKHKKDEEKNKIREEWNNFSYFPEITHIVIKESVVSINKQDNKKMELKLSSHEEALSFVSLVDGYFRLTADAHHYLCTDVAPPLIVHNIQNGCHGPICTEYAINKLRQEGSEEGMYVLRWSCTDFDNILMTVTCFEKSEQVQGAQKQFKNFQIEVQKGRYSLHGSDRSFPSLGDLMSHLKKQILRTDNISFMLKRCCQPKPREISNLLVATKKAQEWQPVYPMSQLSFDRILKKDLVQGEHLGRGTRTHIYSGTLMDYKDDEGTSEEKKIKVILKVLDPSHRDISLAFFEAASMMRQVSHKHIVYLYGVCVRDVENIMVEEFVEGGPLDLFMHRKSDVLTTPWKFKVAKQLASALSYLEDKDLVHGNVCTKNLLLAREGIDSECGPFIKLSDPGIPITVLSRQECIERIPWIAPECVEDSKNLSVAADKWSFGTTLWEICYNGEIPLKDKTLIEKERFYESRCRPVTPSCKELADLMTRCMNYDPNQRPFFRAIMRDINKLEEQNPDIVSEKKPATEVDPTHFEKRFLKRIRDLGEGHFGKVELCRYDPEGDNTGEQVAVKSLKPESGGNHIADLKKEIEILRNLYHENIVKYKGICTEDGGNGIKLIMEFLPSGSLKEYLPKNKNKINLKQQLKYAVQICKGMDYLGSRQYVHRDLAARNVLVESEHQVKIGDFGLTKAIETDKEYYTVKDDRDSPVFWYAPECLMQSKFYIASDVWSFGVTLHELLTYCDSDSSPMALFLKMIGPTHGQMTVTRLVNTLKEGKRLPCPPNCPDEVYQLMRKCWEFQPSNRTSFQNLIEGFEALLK

Tyrosine-protein kinase SYK (Rattus norvegicus), sequence (Q64725 whole entry, looked up): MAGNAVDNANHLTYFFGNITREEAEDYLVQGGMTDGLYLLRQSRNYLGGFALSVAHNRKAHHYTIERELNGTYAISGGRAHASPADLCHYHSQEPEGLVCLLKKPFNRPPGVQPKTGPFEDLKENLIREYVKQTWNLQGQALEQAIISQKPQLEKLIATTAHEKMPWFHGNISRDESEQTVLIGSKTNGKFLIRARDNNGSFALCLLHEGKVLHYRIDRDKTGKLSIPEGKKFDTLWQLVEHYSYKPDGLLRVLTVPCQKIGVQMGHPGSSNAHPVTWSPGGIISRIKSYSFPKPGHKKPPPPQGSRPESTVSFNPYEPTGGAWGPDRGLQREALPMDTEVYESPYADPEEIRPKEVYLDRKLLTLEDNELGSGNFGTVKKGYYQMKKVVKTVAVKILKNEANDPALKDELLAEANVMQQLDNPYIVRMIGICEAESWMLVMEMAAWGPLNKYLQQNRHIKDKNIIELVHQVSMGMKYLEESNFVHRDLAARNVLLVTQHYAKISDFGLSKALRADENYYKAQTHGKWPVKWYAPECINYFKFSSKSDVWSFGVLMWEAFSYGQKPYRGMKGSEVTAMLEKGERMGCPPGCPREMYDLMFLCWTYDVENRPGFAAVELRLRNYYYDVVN
1-phosphatidylinositol 4,5-bisphosphate phosphodiesterase gamma-1 (Rattus norvegicus), sequence (P10686 whole entry): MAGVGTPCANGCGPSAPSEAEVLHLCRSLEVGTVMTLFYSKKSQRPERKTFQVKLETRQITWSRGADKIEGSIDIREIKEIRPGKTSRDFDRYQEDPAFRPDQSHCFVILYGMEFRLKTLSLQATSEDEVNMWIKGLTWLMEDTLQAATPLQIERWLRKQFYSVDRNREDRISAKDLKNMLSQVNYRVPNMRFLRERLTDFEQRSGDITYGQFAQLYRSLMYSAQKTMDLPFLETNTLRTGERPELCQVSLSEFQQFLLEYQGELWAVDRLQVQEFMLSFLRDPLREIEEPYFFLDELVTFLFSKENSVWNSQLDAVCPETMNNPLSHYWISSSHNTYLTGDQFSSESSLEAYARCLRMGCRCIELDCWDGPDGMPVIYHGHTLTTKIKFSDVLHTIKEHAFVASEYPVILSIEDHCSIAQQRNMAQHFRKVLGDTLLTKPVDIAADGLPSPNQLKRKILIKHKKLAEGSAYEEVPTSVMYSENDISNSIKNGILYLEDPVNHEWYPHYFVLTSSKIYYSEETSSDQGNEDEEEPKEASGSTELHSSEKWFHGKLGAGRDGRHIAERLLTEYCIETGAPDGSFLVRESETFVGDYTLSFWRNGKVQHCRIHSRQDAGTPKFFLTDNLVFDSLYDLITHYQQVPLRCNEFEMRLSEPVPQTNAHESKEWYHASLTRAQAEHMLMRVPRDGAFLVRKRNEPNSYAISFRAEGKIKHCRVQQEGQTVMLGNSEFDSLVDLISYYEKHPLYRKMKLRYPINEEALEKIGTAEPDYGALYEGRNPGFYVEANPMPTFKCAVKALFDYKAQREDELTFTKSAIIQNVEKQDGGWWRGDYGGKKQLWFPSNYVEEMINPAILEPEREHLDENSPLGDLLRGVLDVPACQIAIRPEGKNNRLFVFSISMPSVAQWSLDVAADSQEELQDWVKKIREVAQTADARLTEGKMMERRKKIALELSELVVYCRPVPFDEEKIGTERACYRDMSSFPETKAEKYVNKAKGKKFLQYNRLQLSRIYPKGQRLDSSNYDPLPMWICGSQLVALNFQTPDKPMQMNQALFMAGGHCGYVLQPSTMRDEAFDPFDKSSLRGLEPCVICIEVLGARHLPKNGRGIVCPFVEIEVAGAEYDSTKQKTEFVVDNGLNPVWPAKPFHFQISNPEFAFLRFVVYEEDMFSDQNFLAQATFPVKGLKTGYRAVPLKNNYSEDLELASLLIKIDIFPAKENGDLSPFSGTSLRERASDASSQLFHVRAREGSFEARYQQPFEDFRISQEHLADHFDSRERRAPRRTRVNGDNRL

inhibition [14] [%] | inhibition [15] [%] | SMILES | inhibition at 0.04 µM (RBL-2H3 [1]) [%] | inhibition [2] | inhibition [3] | inhibition (RBL-2H3 [4]) | Cmax [5] [ng/mL] | AUC(0-t) at 24 h [6] [ng·h/mL] | clearance [7] [mL/min/kg] | MRT [8] [h] | Activity (Mus musculus) | Activity [9] | Activity [10] | Activity [11] | Activity [12] | Activity [13]
 |  | Cc1ccc(C(=O)Nc2cc(C(F)(F)F)cc(C(F)(F)F)c2)cc1C#Cc1cc(-c2cnn(C)c2)cnc1N | 112 | Dose-Dependent Effect | Dose-Dependent Effect | Dose-Dependent Effect | 1940 | 21300 | 15.2 | 4.4 | Active | Non-Toxic | Non-Toxic | Non-Toxic | Non-Toxic | Non-Toxic
-2 | 14 | Cc1ccc(C(=O)Nc2ccc(Cl)cc2Cl)cc1C#Cc1cc(-c2cnn(C)c2)cnc1N |  |  |  |  |  |  |  |  |  |  |  |  |  | 
